{"source": "patent US9963463B2", "about": "“Urea-substituted indanes as P38 map kinase inhibitors” (TORRENT PHARMACEUTICALS LIMITED, priority 2014, dated 2018)", "key": {"[1]": {"tested_on": "cigarette smoke induced Neutrophil accumulation in BAL Fluid", "test": "Acute mouse model of airway inflammation (tobacco smoke), BAL neutrophils", "format": "in vivo", "conditions": "mice, aerosol exposure 25 minutes; for Neutrophil (*10^3 cells/animal): BAL fluid, Mean ± SEM; for % Inhibition: neutrophil vs vehicle group", "description": "In vivo efficacy evaluation of compounds in animal model of airway inflammation: The tobacco smoke induced airway inflammation model is used for in-vivo efficacy of compound. Many investigators have used acute tobacco smoke (TS) exposure in rodents as models of airway inflammation for quick screening of anti-inflammatory therapies (J Pharmacol Exp Ther. 2008; 324(3):921-9; J Pharmacol Exp Ther. 2010; 332(3):764-75; Journal of Inflammation 2013, 10(Suppl 1):31 and Eur Respir J Suppl 2006; 663s:3850).\nA: Efficacy Studies in Acute Mouse Model of Airway Inflammation\nMice were exposed to tobacco smoke (TS) in an acrylic chamber. Animals were exposed to TS from 8, 12, 16 cigarettes on day 1, day 2, day 3 respectively. From day 4 onwards till day 11, animals were exposed to TS from 20 cigarettes per day. Like human COPD associated inflammation, acute exposure of mice to TS induced significant inflammatory cell, predominantly neutrophil recruitment to lungs as compared to air exposed control mice (BALF neutrophil levels, nil in air control group vs 178±29.1*10^3 cells/animal in smoke exposed vehicle group).\nLung delivery of test compound was achieved by whole body aerosol exposure for 25 minutes in a chamber. Mice were divided in different dose groups and exposed in a chamber for 25 minutes with vehicle or Compound 12 (0.3 mg/ml) or Compound 12 (3 mg/ml). A total quantity of 3.5 ml of either vehicle or test compound formulation was nebulized in a chambers to respective groups over 25 mins period. Test compounds were administered 2 hr prior to TS exposure from day 6 to day 11. Bronchoalveolar lavage (BAL) was performed 24 hr post last TS exposure.\nTrachea of animal was cannulated using catheter. Phosphate Buffer Saline (PBS) was used as lavage fluid. A volume of 0.5 ml was gently instilled and withdrawn and collected in microcentrifuge tube placed on ice. This procedure was repeated further 2 times.\nLavage fluid was separated from cells by centrifugation and supernatant separated. The cell pallet was resuspended in known volume of PBS. Cells in aliquot were stained using Turk solution and total cell numbers were calculated by counting Turk stained aliquot under microscope using haemocytometer.\nThe residual cell suspension was resuspended and slides prepared using cyto centrifuge technique (Cytospin 4, Thermo Shandon). The slides were then fixed with methanol, air dried and stained with May Grunwald Giemsa stain. Up to 300 cells were counted and differentiated using standard morphometric techniques under light microscopy.\nAll results are presented at individual data for each animal and mean value calculated for each group. Percentage inhibition for the neutrophil was calculated for Compound 12 treatment group against vehicle group. Results are summarized herein below: […]"}, "[2]": {"biological_target": "T1, purified recombinant human p38 alpha MAPK (Homo sapiens, UniProt Q16539)", "T1 construct": "purchased Millipore, USA", "T1 sequence (Q16539 whole entry)": "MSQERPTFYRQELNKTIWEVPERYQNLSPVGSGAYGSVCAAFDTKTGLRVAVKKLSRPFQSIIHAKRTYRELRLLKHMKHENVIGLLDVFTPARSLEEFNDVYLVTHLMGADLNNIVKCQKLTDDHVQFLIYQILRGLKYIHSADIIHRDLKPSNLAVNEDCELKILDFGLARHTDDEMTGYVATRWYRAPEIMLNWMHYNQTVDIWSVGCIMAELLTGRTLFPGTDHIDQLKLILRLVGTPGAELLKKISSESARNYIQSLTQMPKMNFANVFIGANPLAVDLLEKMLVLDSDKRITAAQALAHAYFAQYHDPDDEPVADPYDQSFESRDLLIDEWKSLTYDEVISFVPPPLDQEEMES", "test": "Inhibition of p38 alpha MAPK activity, TR-FRET kinase assay", "format": "biochemical", "conditions": "Concentration 1 μM; read-out: P38α Inhibition", "in_short": "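Recombinant human p38α preincubated 15 min at RT with compound (0.5–1.0% DMSO), then 30 nM biotinylated GST-ATF2 and 100 μM ATP added for 60 min at RT. Stopped with EDTA; Eu-anti-phospho-ATF2 and APC-streptavidin detection, 60 min. % inhibition from 665/615 nm TR-FRET ratio.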"}, "[3]": {"tested_on": "cigarette smoke induced inflammatory cell accumulation in BAL Fluid", "test": "Acute guinea pig model of airway inflammation (tobacco smoke), BAL neutrophils", "format": "in vivo, Guinea pigs", "conditions": "acute TS model, 6 mg/ml, aerosol exposure 75 minutes", "description": "Observation: It was observed that compound of present invention was found effective in inhibition of neutophil influx, an index of pulmonary inflammation. […] B. (I) Efficacy Studies in Acute Guinea Pig Model of Airway Inflammation\nGuinea pigs were exposed to tobacco smoke (TS) in an acrylic chamber. Animals were exposed to TS from 5, 10, 15 cigarettes on day 1, day 2, day 3 respectively. From day 4 onwards till day 11, animals were exposed to TS from 15 cigarettes per day. […]\nLung delivery of test compound was achieved by whole body aerosol exposure for 75 minutes in a chamber. […] A total quantity of 7.0 ml of either vehicle or test compound formulation (suspension formulation with D90<5μ, with Malvern Mastersizer®) was nebulized in chambers to respective groups over 75 mins period. […]\n(§1) Lavage fluid was separated from cells by centrifugation and supernatant separated. […] Cells in aliquot were stained using Turk solution and total cell numbers were calculated by counting Turk stained aliquot under microscope using haemocytometer.\nThe residual cell suspension was resuspended and slides prepared using cyto centrifuge technique (Cytospin 4, Thermo Shandon). […] Up to 300 cells were counted and differentiated using standard morphometric techniques under light microscopy. All results are presented at individual data for each animal and mean value calculated for each group. […]"}, "[4]": {"tested_on": "BALF fluid inflammatory cell influx and lung function", "test": "Chronic model of COPD in guinea pigs (tobacco smoke and LPS, 18 weeks)", "format": "in vivo", "conditions": "guinea pig, chronic TS/LPS COPD model, 3 mg/ml, aerosol exposure 50 minutes", "description": "Observation: It was observed that compound of present invention was found effective in inhibition of neutrophil influx, an index of pulmonary inflammation in guinea pig model of airway inflammation. […] (II) Efficacy Studies in Chronic Model of COPD in Guinea Pigs.\nGuinea pigs were exposed to tobacco smoke (TS) and Lipopolysaccharide (LPS) in an acrylic chamber. Exposure to TS and LPS is given in following manner in a week for a total of 18 weeks.\nLung delivery of test material was achieved by whole body aerosol exposure for 50 minutes in a chamber. Guinea pig were divided in different dose groups and exposed to either vehicle or compound no 43 (3 mg/ml). A total quantity of 7.0 ml of either vehicle or compound no 43 (suspension formulation with D90<5μ, with Malvern Mastersizer®) was nebulized in chambers to respective groups over 50 mins period. Compound no 43 or vehicle was administered 2 hr prior to TS/LPS exposure once daily from week 9 to week 18. Control animals were exposed to room air instead of TS and PBS instead of LPS. Lung function and bronchoalveolar lavage (BAL) for each animal was performed 24 hr post last TS exposure. […]\nas §1\nThe residual cell suspension was resuspended and slides prepared using cyto centrifuge technique (Cytospin 4, Thermo Shandon). […] Up to 300 cells were counted and differentiated using standard morphometric techniques under light microscopy.\nAll results are presented at individual data for each animal and mean value calculated for each group. Percentage inhibition for the neutrophil was calculated for compound no 43 treatment group against vehicle group. […]"}}}
{"smiles": "Cc1ccc(-n2nc(C(C)(C)C)cc2NC(=O)Nc2ccc(OCCN3CCN(CC4CC4)C(=O)C3)c3c2CCC3)cc1", "note": "[Compound 12, 1-[3-tert-butyl-1-(4-methylphenyl)-1H-pyrazol-5-yl]-3-(7-{2-[4-(cyclopropylmethyl)-3-oxopiperazin-1-yl]ethoxy}-2,3-dihydro-1H-inden-4-yl)urea]", "values": [{"measurement": "Neutrophil (*10^3 cells/animal)", "setting": "[1]; formulation strength 0.3 mg/ml", "result": "107 ± 18.5 *10^3 cells/animal"}, {"measurement": "Neutrophil (*10^3 cells/animal)", "setting": "[1]; formulation strength 3 mg/ml", "result": "69.6 ± 11.1 *10^3 cells/animal"}, {"measurement": "% Inhibition", "setting": "[1]; formulation strength 0.3 mg/ml", "result": 40, "unit": "%"}, {"measurement": "% Inhibition", "setting": "[1]; formulation strength 3 mg/ml", "result": 61, "unit": "%"}, {"measurement": "inhibition at 1 µM", "setting": "[2]", "result": "80 to 100", "unit": "%"}]}
{"smiles": "CCS(=O)(=O)Nc1cc(C(C)(C)C)cc(NC(=O)Nc2ccc(OCCN3CCN(CC4CC4)C(=O)C3)c3c2CCC3)c1OC", "note": "[Compound 43, N-(5-tert-butyl-3-{[(7-{2-[4-(cyclopropylmethyl)-3-oxopiperazin-1-yl]ethoxy}-2,3-dihydro-1H-inden-4-yl)carbamoyl]amino}-2-methoxyphenyl)ethanesulfonamide]", "values": [{"measurement": "Effect on inflammatory cell influx Neutrophil (*10^6cells)", "setting": "[3]; BAL fluid, Mean ± SEM", "result": "0.8 ± 0.20 *10^6cells"}, {"measurement": "Effect on inflammatory cell influx % inhib^n", "setting": "[3]; neutrophil vs vehicle group", "result": 57, "unit": "%"}, {"measurement": "inhibition at 1 µM", "setting": "[2]", "result": "80 to 100", "unit": "%"}, {"measurement": "Neutrophil (*10^6cells)", "setting": "[4]; BALF, once daily week 9 to 18, Mean ± SEM", "result": "4.0 ± 0.70 *10^6cells"}, {"measurement": "lung function parameters (FRC, RV, IC/TLC ratio, RV/TLC ratio)", "setting": "[4]; FIGS. 1A, 1B, 2A, 2B", "result": "significantly improves lung function aspects"}, {"measurement": "% inhib^n", "setting": "[4]; neutrophil vs vehicle group", "result": 32, "unit": "%"}]}
{"smiles": "Cc1ccc(-n2nc(C(C)(C)C)cc2NC(=O)Nc2ccc(OCCN3CCn4c(nnc4-c4cccc5ccccc45)C3)c3c2CCC3)cc1", "note": "[Compound 67, 1-[3-tert-butyl-1-(4-methylphenyl)-1H-pyrazol-5-yl]-3-(7-{2-[3-(naphthalen-1-yl)-5,6-dihydro[1,2,4]triazolo[4,3-a]pyrazin-7(8H)-yl]ethoxy}-2,3-dihydro-1H-inden-4-yl)urea]", "values": [{"measurement": "inhibition at 1 µM", "setting": "[2]", "result": "60 to 80", "unit": "%"}]}
